System: U-2 OS (ATCC HTB-96) human osteosarcoma cell line
Experiment: Timelapse imaging determination of sequential intermitotic times (IMT1, IMT2) in cell lineages
Type: cell-based
Conditions: U-2 OS lineages from progenitors exposed to 10 μM topotecan for 1 h
Description: Human osteosarcoma cell line (U-2 OS (ATCC HTB-96)23) derived from a person were used. The cells were maintained at 37° C. and 5% CO2 using standard tissue culture techniques. Media used was McCoys 5A modified (Sigma) supplemented with 2 mM glutamine, 100 units/ml penicillin, 100 μg/ml streptomycin and 10% fetal calf serum. The cells were seeded onto tissue culture plastic, PDMS layer with and without PDMS microtrench arrays and placed in a six-well multi-well dish (10^4 cells per ml) and left to establish for 24 hours. Post-24 hours incubation the culture dish was then immediately placed onto a timelapse imaging instrument designed to capture transmission phase images from multi-well plates. An Axiovert 100 microscope (Carl Zeiss, Welwyn Garden City, UK) was fitted with an incubator for 37° C./5% CO2 maintenance (Solent Scientific, Portsmouth, UK), and an ORCA-ER CCD camera (Hamamatsu, Reading, UK). All images were collected with a x10 (PH1) apochromat objective lens providing a full view of each microtrench format. Sequences were captured sampling at 15 min, and for three fields per treatment regime (using AQM, Kinetic Imaging, Nottingham, UK). MetaMorph software (Molecular Devices, California) was used to view the stacked image in sequence as for each experiment the images were stacked and saved as *.stk format. […]

CC[C@@]1(O)C(=O)OCc2c1cc1n(c2=O)Cc2cc3c(CN(C)C)c(O)ccc3nc2-1 [topotecan]
IMT2 (av ± sd) (time between the division generating daughters and the division generating granddaughters): 22.9 ± 5.5 | IMT1 (av ± sd) (time between the division generating the mother cell and the division generating two daughters): 24 ± 4.4

— patent US20110171663A1, “MICROTRENCH AND TUMOUR PROLIFERATION ASSAY” (University College Cardiff Consultants Ltd, priority 2008, published 2011)
